Read-outs that look alike come from different tables or passages of the source.
Assays:
[1] = Example 1: plasma pharmacokinetics; type: in vivo; conditions: human, sc; for Cmax: read-out: Cmax (gMean)
[2] = Example 2: plasma pharmacokinetics; type: in vivo; conditions: human, sc, read-out: AUC0-168 (gMean)
Source text: In Table 9, only the gMean PK parameters of subjects who followed the planned dose rising scheme are included. Following subcutaneous administration of Compound I, the gMean plasma AUC0-168 and Cmax increased with further weekly or twice weekly dosing.

[3] = Example 3: safety (AEs, laboratory, ECG, vital signs, NASH scores); type: in vivo, human
Experimental: • Semaglutide • Dose: 0.25, 0.25, 0.25, 0.25, 0.5, 0.5, 0.5, 0.5, 1.0 mg (weeks 9−16) once weekly • Mode of administration: Solution for injection
Safety endpoints included Columbia-Suicide Severity Rating Scale (C-SSRS) and various electrocardiograms (ECG) assessments. Safety was assessed based on adverse events (AEs), adverse event of special interest (AESIs), clinical laboratory assessments, vital signs, and physical examination. AESIs were pre-specified in the protocol as pancreatitis and hepatic injury.
Analyses of safety were descriptive.

Work on CC[C@H](C)[C@H](NC(=O)[C@H](Cc1ccccc1)NC(=O)[C@H](CC(=O)O)NC(=O)[C@H](CCCCN)NC(=O)[C@H](C)NC(=O)[C@H](C)NC(=O)[C@H](CCCNC(=N)N)NC(=O)[C@H](CCC(=O)O)NC(=O)[C@H](CC(=O)O)NC(=O)[C@H](CC(C)C)NC(=O)[C@H](Cc1ccc(O)cc1)NC(=O)[C@H](CCCCN)NC(=O)[C@H](CO)NC(=O)[C@H](Cc1ccc(O)cc1)NC(=O)[C@H](CC(=O)O)NC(=O)[C@H](CO)NC(=O)[C@@H](NC(=O)[C@H](Cc1ccccc1)NC(=O)[C@@H](NC(=O)CNC(=O)[C@H](CCC(N)=O)NC(=O)C1(NC(=O)[C@@H](N)Cc2c[nH]cn2)CCC1)[C@@H](C)O)[C@@H](C)O)C(=O)N[C@@H](CCCCNC(=O)CNC(=O)CNC(=O)[C@H](CO)NC(=O)CNC(=O)[C@H](CO)NC(=O)CNC(=O)CC[C@H](NC(=O)CCCCCCCCCCCCCCCCC(=O)O)C(=O)O)C(=O)N[C@@H](Cc1c[nH]c2ccccc12)C(=O)N[C@@H](CC(C)C)C(=O)N[C@@H](CCC(=O)O)C(=O)N[C@@H](CO)C(=O)N[C@@H](C)C(N)=O [Compound I] yielded a Cmax ([1]; 1.8 mg, Ex.1 weekly scheme 5, wk 5, 1.8 mg sc) of 57.9 nM, an AUC(0-t) ([1]; 1.8 mg, Ex.1 weekly scheme 5, wk 6, 1.8 mg sc, read-out: AUC0-168 (gMean)) of 6.77 µM·h and a Cmax ([1]; 1.8 mg, Ex.1 weekly scheme 5, wk 6, 1.8 mg sc) of 63.3 nM. For the same molecule, the AUC(0-t) ([1]; 2 mg, Ex.1 weekly scheme 2, wk 5, 2.0 mg sc, read-out: AUC0-168 (gMean)) was 6.55 µM·h, the Cmax ([1]; 2 mg, Ex.1 weekly scheme 2, wk 5, 2.0 mg sc) was 57.7 nM and the AUC(0-t) ([1]; 2.1 mg, Ex.1 twice weekly scheme, wk 13, 2.1 mg sc, read-out: AUC0-72 (gMean)) was 6.7 µM·h. The Cmax ([1]; 2.1 mg, Ex.1 twice weekly scheme, wk 13, 2.1 mg sc) was 108 nM, the AUC(0-t) ([1]; 2.4 mg, Ex.1 twice weekly scheme, wk 15, 2.4 mg sc, read-out: AUC0-72 (gMean)) was 7.62 µM·h and the Cmax ([1]; 2.4 mg, Ex.1 twice weekly scheme, wk 15, 2.4 mg sc) was 132 nM. It also gave an AUC(0-t) ([1]; 2.4 mg, Ex.1 twice weekly scheme, wk 16, 2.4 mg sc, read-out: AUC0-72 (gMean)) of 8.55 µM·h, a Cmax ([1]; 2.4 mg, Ex.1 twice weekly scheme, wk 16, 2.4 mg sc) of 142 nM and an AUC(0-t) ([1]; 2.4 mg, Ex.1 weekly scheme 2, wk 6, 2.4 mg sc, read-out: AUC0-168 (gMean)) of 8.19 µM·h. For the same molecule, the Cmax ([1]; 2.4 mg, Ex.1 weekly scheme 2, wk 6, 2.4 mg sc) was 70.6 nM, the AUC(0-t) ([1]; 2.4 mg, Ex.1 weekly scheme 3, wk 5, 2.4 mg sc, read-out: AUC0-168 (gMean)) was 7.19 µM·h and the Cmax ([1]; 2.4 mg, Ex.1 weekly scheme 3, wk 5, 2.4 mg sc) was 63 nM. It also gave an AUC(0-t) ([1]; 2.4 mg, Ex.1 weekly scheme 4, wk 13, 2.4 mg sc, read-out: AUC0-168 (gMean)) of 10.3 µM·h, a Cmax ([1]; 2.4 mg, Ex.1 weekly scheme 4, wk 13, 2.4 mg sc) of 88.3 nM and an AUC(0-t) ([1]; 2.4 mg, Ex.1 weekly scheme 4, wk 15, 2.4 mg sc, read-out: AUC0-168 (gMean)) of 10.9 µM·h. It also gave a Cmax ([1]; 2.4 mg, Ex.1 weekly scheme 4, wk 15, 2.4 mg sc) of 87.1 nM, an AUC(0-t) ([1]; 2.4 mg, Ex.1 weekly scheme 4, wk 16, 2.4 mg sc, read-out: AUC0-168 (gMean)) of 11.5 µM·h and a Cmax ([1]; 2.4 mg, Ex.1 weekly scheme 4, wk 16, 2.4 mg sc) of 97.3 nM. It also gave an AUC(0-t) ([1]; 2.4 mg, Ex.1 weekly scheme 5, wk 7, 2.4 mg sc, read-out: AUC0-168 (gMean)) of 9.08 µM·h, a Cmax ([1]; 2.4 mg, Ex.1 weekly scheme 5, wk 7, 2.4 mg sc) of 77.8 nM and an AUC(0-t) ([1]; 3 mg, Ex.1 weekly scheme 3, wk 6, 3.0 mg sc, read-out: AUC0-168 (gMean)) of 10.4 µM·h. For the same molecule, the Cmax ([1]; 3 mg, Ex.1 weekly scheme 3, wk 6, 3.0 mg sc) was 88.7 nM, the AUC(0-t) ([1]; 3 mg, Ex.1 weekly scheme 5, wk 9, 3.0 mg sc, read-out: AUC0-168 (gMean)) was 11.3 µM·h and the Cmax ([1]; 3 mg, Ex.1 weekly scheme 5, wk 9, 3.0 mg sc) was 102 nM. For the same molecule, the AUC(0-t) ([1]; 3.6 mg, Ex.1 weekly scheme 5, wk 11, 3.6 mg sc, read-out: AUC0-168 (gMean)) was 14.2 µM·h, the Cmax ([1]; 3.6 mg, Ex.1 weekly scheme 5, wk 11, 3.6 mg sc) was 129 nM and the AUC(0-t) ([1]; 4.2 mg, Ex.1 weekly scheme 5, wk 13, 4.2 mg sc, read-out: AUC0-168 (gMean)) was 15.9 µM·h. For the same molecule, the Cmax ([1]; 4.2 mg, Ex.1 weekly scheme 5, wk 13, 4.2 mg sc) was 134 nM, the AUC(0-t) ([1]; 4.8 mg, Ex.1 weekly scheme 5, wk 15, 4.8 mg sc, read-out: AUC0-168 (gMean)) was 18.7 µM·h and the Cmax ([1]; 4.8 mg, Ex.1 weekly scheme 5, wk 15, 4.8 mg sc) was 161 nM. The AUC(0-t) ([1]; 4.8 mg, Ex.1 weekly scheme 5, wk 16, 4.8 mg sc, read-out: AUC0-168 (gMean)) was 19.7 µM·h, the Cmax ([1]; 4.8 mg, Ex.1 weekly scheme 5, wk 16, 4.8 mg sc) was 193 nM and the AUC(0-t) ([2]; 0.6 mg, Ex.2 DG2 weekly, wk 1, 0.6 mg sc) was 2.02 µM·h. The AUC(0-t) ([2]; 0.6 mg, Ex.2 DG3 twice weekly, wk 3, 0.6 mg sc) was 1.64 µM·h, the AUC(0-t) ([2]; 0.9 mg, Ex.2 DG1 weekly, wk 3, 0.9 mg sc) was 3.62 µM·h and the AUC(0-t) ([2]; 0.9 mg, Ex.2 DG3 twice weekly, wk 5, 0.9 mg sc) was 3.52 µM·h. It also gave an AUC(0-t) ([2]; 0.9 mg, Ex.2 DG3 twice weekly, wk 6, 0.9 mg sc) of 3.83 µM·h, an AUC(0-t) ([2]; 1.2 mg, Ex.2 DG2 weekly, wk 3, 1.2 mg sc) of 4.93 µM·h and an AUC(0-t) ([2]; 1.2 mg, Ex.2 DG3 twice weekly, wk 7, 1.2 mg sc) of 4.69 µM·h. The AUC(0-t) ([2]; 1.5 mg, Ex.2 DG1 weekly, wk 5, 1.5 mg sc) was 6.74 µM·h, the AUC(0-t) ([2]; 1.5 mg, Ex.2 DG3 twice weekly, wk 9, 1.5 mg sc) was 6.72 µM·h and the AUC(0-t) ([2]; 1.8 mg, Ex.2 DG1 weekly, wk 6, 1.8 mg sc) was 8.41 µM·h. The AUC(0-t) ([2]; 1.8 mg, Ex.2 DG1 weekly, wk 7, 1.8 mg sc) was 9.01 µM·h, the AUC(0-t) ([2]; 1.8 mg, Ex.2 DG1 weekly, wk 9, 1.8 mg sc) was 8.52 µM·h and the AUC(0-t) ([2]; 1.8 mg, Ex.2 DG1 weekly, wk 11, 1.8 mg sc) was 8.83 µM·h. It also gave an AUC(0-t) ([2]; 1.8 mg, Ex.2 DG1 weekly, wk 13, 1.8 mg sc) of 9.22 µM·h, an AUC(0-t) ([2]; 1.8 mg, Ex.2 DG1 weekly, wk 15, 1.8 mg sc) of 9.5 µM·h and an AUC(0-t) ([2]; 1.8 mg, Ex.2 DG1 weekly, wk 16, 1.8 mg sc) of 9.62 µM·h. For the same molecule, the AUC(0-t) ([2]; 1.8 mg, Ex.2 DG2 weekly, wk 5, 1.8 mg sc) was 6.64 µM·h, the AUC(0-t) ([2]; 1.8 mg, Ex.2 DG2 weekly, wk 6, 1.8 mg sc) was 7.55 µM·h and the AUC(0-t) ([2]; 1.8 mg, Ex.2 DG3 twice weekly, wk 11, 1.8 mg sc) was 8.21 µM·h. For the same molecule, the AUC(0-t) ([2]; 2.1 mg, Ex.2 DG3 twice weekly, wk 13, 2.1 mg sc) was 9.78 µM·h, the AUC(0-t) ([2]; 2.4 mg, Ex.2 DG2 weekly, wk 7, 2.4 mg sc) was 9.83 µM·h and the AUC(0-t) ([2]; 2.4 mg, Ex.2 DG3 twice weekly, wk 15, 2.4 mg sc) was 10.2 µM·h. For the same molecule, the AUC(0-t) ([2]; 2.4 mg, Ex.2 DG3 twice weekly, wk 16, 2.4 mg sc) was 11.2 µM·h, the AUC(0-t) ([2]; 3 mg, Ex.2 DG2 weekly, wk 9, 3.0 mg sc) was 13.7 µM·h and the AUC(0-t) ([2]; 3.6 mg, Ex.2 DG2 weekly, wk 11, 3.6 mg sc) was 16.4 µM·h. The AUC(0-t) ([2]; 4.2 mg, Ex.2 DG2 weekly, wk 13, 4.2 mg sc) was 19.3 µM·h, the AUC(0-t) ([2]; 4.8 mg, Ex.2 DG2 weekly, wk 15, 4.8 mg sc) was 22.9 µM·h and the deaths ([3]; Ex.3, whole trial) was “no deaths”. For the same molecule, the “AEs of special interest, percentage of patients” value ([3]; in vivo) was “(0.3) interest %” and the cases of pancreatitis ([3]; in vivo) was “no cases of pancreatitis”.
